Patent US12539269B2, “Composition for blocking ultraviolet rays and fine dust, and preparation method thereof” (SANG HWANG MI-IN CO., LTD, priority 2020, dated 2026)

Test system: HaCaT
Test: Hyaluronic acid production amount (ELISA kit) in BP-stimulated keratinocytes
Type: cell-based
Procedure: In order to confirm whether the extract of a black hoof mushroom, a shiitake mushroom, and an oyster mushroom increased the hyaluronic acid (HA) production amount in HaCaT which is a keratinocyte, measurement was performed with an ELISA kit, and the results are shown in Table 7. In Table 7, N (normal) is a BP (benzo[α]pyrene)-unstimulated group, and C (control) is a BP (benzo[α]pyrene)-stimulated group.

Q: For `O=C(O[C@@H]1Cc2c(O)cc(O)cc2O[C@@H]1c1cc(O)c(O)c(O)c1)c1cc(O)c(O)c(O)c1` [EGCG], which “Increase of hyaluronic acid production versus control group (increase rate)” value (10 μg/mL, versus control C 99.3 ng/mL) is on record?
A: Its value is 6.3 ng/mL.

Q: And the “Hyaluronic acid production amount” value (BP (benzo[α]pyrene)-stimulated, EGCG 10 μg/mL, N 198, C 99.3)?
A: The value was 105.6 ng/mL.
